Values joined by “and” are separate entries in the source; they are usually repeats but may differ in a detail not shown here. Equal values may be shown once.
Legend:
[1] = Thermal stability of the solid (90° C., 7 days, HPLC peak areas); assay type: physicochemical
Method: 0.3 mg of the test compound, e.g. comparative example 11 were solved in 0.1 ml dimethylsulfoxide and 0.4 ml acetonitrile. Then 1.0 ml water was added. For complete dissolution the HPLC vial was shaken and sonicated. This solution was immediately analyzed by HPLC (reference at t0). 0.3 mg of the test compound was weighed into another HPLC vial. The vial was capped and stored for 7 days in a heating block at 90° C.
After this time the vial was decapped and 0.1 ml dimethylsulfoxide and 0.4 ml acetonitrile were added to the stressed compound. Then 1.0 ml water was added. For complete dissolution the HPLC vial was shaken and sonicated. The sample was analyzed by HPLC (sample after 1 week). The peak areas in percentage are used for quantification.

[2] = system: thromboxane analog U46619 induced PAH in minipigs; assay: Haemodynamics (PAP, BP) in the anesthetized thromboxane challenged PAH minipig after inhaled (nebulized) application (C-2.1); assay type: in vivo, Göttingen minipig; details: inhaled; for BP % change vs. baseline / PAP % change vs. baseline: 100 μg/kg nominal dose, individual animals
Method: Experiments were carried out in anesthetized Göttingen minipigs, anesthetized rats and conscious, telemetrically instrumented dogs. Acute pulmonary hypertension was induced for example by infusion of a thromboxane A2 analogon, by acute hypoxia treatment or hypoxia treatment over a number of weeks and/or by administration of monocrotaline. Test substances were applied via nebulization using the Nebutec® or Aeroneb® Pro nebulizer system, and/or by means of powder and/or solution applicators for experimental intratracheal administration (Liquid MicroSprayer®, Dry Powder Insufflator™, MicroSprayer®, Penn-Century Inc., Wyndmoor, PA, USA) or after solid nebulization inserted into the inspiration arm of the ventilation. Compounds were employed as solids or solutions depending on the molecular structure and the technical possibility depending on the experiment. The haemodynamic signals were recorded and evaluated by means of pressure transducers/amplifiers (Combitransducer B. Braun, Melsungen, Germany or CardioMEMS Inc., Atlanta, GA, USA) and Ponemah® or CardioMems® as data aquisition software. After long-term experiments (for example monocrotaline rat), it is also possible to carry out a histological evaluation.
Healthy Gottingen Minipigs® Ellegaard (Ellegaard, Denmark) of both sexes and having a weight of 2-6 kg were used. The animals were sedated by i.m. administration of about 25 mg/kg ketamine and about 10 mg/kg azaperone. Anaesthesia was initiated by i.v. administration of about 2 mg/kg ketamine and about 0.3 mg/kg midazolam. Maintenance of anaesthesia was by i.v. administration of about 7.5-30 mg/kg/h ketamine and about 1-4 mg/kg/h midazolam (rate of infusion 1-4 ml/kg/h) and about 150 μg/kg/h pancuronium bromide (for example Pancuronium-Actavis). After intubation, the animals were ventilated by the ventilator at a constant respiratory volume (10-12 ml/kg, 35 breaths/min; Avea®, Viasys Healthcare, USA, or Engstrom Carestation, GE Healthcare, Freiburg, Germany) such that an end-tidal CO2 concentration of about 5% was achieved. Ventilation was performed with room air, enriched with about 40% oxygen (normoxia). For the measurement of the haemodynamic parameters such as pulmonary arterial pressure (PAP), blood pressure (BP) and heart rate (HR), catheters were inserted into the carotid artery to measure the blood pressure, and a Swan-Ganz® catheter was introduced in a flow-directed manner via the jugular vein into the pulmonary artery. The haemodynamic signals were recorded and evaluated by means of pressure transducers (Combitransducer, B. Braun, Melsungen, Germany)/amplifiers and Ponemah® as data aquisition software.
After the instruments have been placed into the animals, continuous infusion of a thromboxane A2 analog was initiated to increase the pulmonary arterial pressure. […] D0400, or Cayman Chemical Company, cat. no. 16440), dissolved in physiological saline, were infused to achieve an increase of the mean pulmonary arterial pressure to values of over 25 mmHg. 30 minutes after the start of the infusion, a plateau was reached, and the experiment was started.
The test substances were administered as i.v. infusion or by inhalation. For the preparation of the solution for inhalation, the following procedure was adopted: For an animal having a weight of 4 kg, to prepare the stock solution (300 μg/kg), 1.2 mg of the test compound were weighed out and dissolved in a total volume of 3 ml (1% DMSO, 99% 0.2% strength citric acid solution, 1 N aqueous sodium hydroxide solution to adjust the pH to 8). The solution was then diluted to the concentration employed using 0.2% strength citric acid which had been adjusted to pH 8 beforehand with aqueous sodium hydroxide solution. In each test, 3 ml of the solution of test compound per 4 kg animal were nebulized in the inhalation arm of the respiratory circuit using the Aeroneb® Pro nebulizer system. The mean nebulization time was about 7 min from the start of the nebulization.

[3] = Storage stability of pseudopolymorphic forms (XRPD after storage); assay type: physicochemical; details: monohydrate II as starting material; one, three and six months; container, temperature, relative humidity per example
[4] = system: guinea pig trachea pre-contracted with carbachol; assay: Bronchorelaxation in vitro: carbachol pre-contracted guinea pig trachea rings, wash-out recovery factor (C-3.1)
Method: Male Dunkin Hartley guinea pig were euthanized using carbon dioxide. The primary bronchus was removed and placed in ice-cold Krebs-Henseleit buffer of following composition (in mmol/l): […] For recording of isometric tension, the bronchial rings were mounted between two hooks. One hook was connected to a force transducer the other was moveable and allowed a precise adjustment of resting tension at 1.5 g. During the equilibration period of 60 min the tissue was washed every 20 min with buffer. […] After 30 min, a cumulative dose response curve of the test compound was constructed. Every concentration was incubated till the response was stable. […] The relaxation was expressed as percentage tension. […] The recovery factor was calculated as a ratio of bronchodilation 1 h after compound application and bronchodilation 1 h after removal (wash out) of test compound. […] Relaxation via Cinaciguat (comparative example 1) and Riociguat (comparative example 2) reached a steady state within the 1 h incubation time. […] In contrast, relaxation induced by comparative example 11 was further progressing during the wash out period (recovery factor 1.41).

Cc1ccc2oc(-c3ccc(COc4ccccc4CCN(CCCCC(=O)O)C4CCCc5nc(C(=O)O)ccc54)cc3)nc2c1 (single isomer, unassigned; (+)) [comparative example 5, (+)-5-{(4-Carboxybutyl)[2-(2-{[4-(5-methyl-1,3-benzoxazol-2-yl)benzyl]oxy}phenyl)ethyl]amino}-5,6,7,8-tetrahydroquinoline-2-carboxylic acid]
thermal stability [1]: limited thermal stability
BP % change vs. baseline ([2]; time 80 min): 100.0%
PAP % change vs. baseline ([2]; time 80 min): 100.0%
BP % change vs. baseline ([2]; time 90 min): 100.0%
PAP % change vs. baseline ([2]; time 90 min): 101.5% and 99.2% and 102.0%
BP % change vs. baseline ([2]; time 100 min): 99.1% and 97.7% and 101.8%
PAP % change vs. baseline ([2]; time 100 min): 98.0% and 90.0% and 93.8%
BP % change vs. baseline ([2]; time 110 min): 99.1% and 97.7% and 100.0%
PAP % change vs. baseline ([2]; time 110 min): 91.7% and 86.4% and 79.0%
BP % change vs. baseline ([2]; time 120 min): 99.1% and 96.6% and 97.3%
PAP % change vs. baseline ([2]; time 120 min): 90.0% and 86.1% and 73.7%
BP % change vs. baseline ([2]; time 130 min): 98.1% and 97.7% and 97.3%
PAP % change vs. baseline ([2]; time 130 min): 87.6% and 88.6% and 72.9%
BP % change vs. baseline ([2]; time 140 min): 98.1% and 98.9% and 97.3%
PAP % change vs. baseline ([2]; time 140 min): 87.1% and 93.0% and 73.7%
BP % change vs. baseline ([2]; time 150 min): 95.3% and 100.0% and 97.3%
PAP % change vs. baseline ([2]; time 150 min): 87.6% and 95.0% and 75.1%
BP % change vs. baseline ([2]; time 160 min): 96.2% and 101.1% and 98.2%
PAP % change vs. baseline ([2]; time 160 min): 88.7% and 96.4% and 77.8%
BP % change vs. baseline ([2]; time 170 min): 95.3% and 101.1% and 96.4%
PAP % change vs. baseline ([2]; time 170 min): 89.8% and 97.8% and 79.2%
BP % change vs. baseline ([2]; time 180 min): 95.3% and 101.1% and 97.3%
PAP % change vs. baseline ([2]; time 180 min): 90.0% and 100.6% and 81.5%
BP % change vs. baseline ([2]; time 190 min): 94.3% and 102.3% and 96.4%
PAP % change vs. baseline ([2]; time 190 min): 90.9% and 101.9% and 81.9%
BP % change vs. baseline ([2]; time 200 min): 92.5% and 103.4% and 95.5%
PAP % change vs. baseline ([2]; time 200 min): 91.4% and 102.8% and 85.2%
BP % change vs. baseline ([2]; time 210 min): 91.5% and 102.3% and 96.4%
PAP % change vs. baseline ([2]; time 210 min): 92.7% and 104.2% and 88.1%
BP % change vs. baseline ([2]; time 220 min): 91.5% and 103.4% and 96.4%
PAP % change vs. baseline ([2]; time 220 min): 94.5% and 105.8% and 91.3%
BP % change vs. baseline ([2]; time 230 min): 91.5% and 103.4% and 94.6%
PAP % change vs. baseline ([2]; time 230 min): 95.1% and 106.1% and 93.1%
BP % change vs. baseline ([2]; time 240 min): 90.6% and 102.3% and 94.6%
PAP % change vs. baseline ([2]; time 240 min): 95.5% and 105.8% and 92.9%
BP % change vs. baseline ([2]; time 250 min): 90.6% and 102.3% and 94.6%
PAP % change vs. baseline ([2]; time 250 min): 96.5% and 105.8% and 94.3%
BP % change vs. baseline ([2]; time 260 min): 89.6% and 101.1% and 93.8%
PAP % change vs. baseline ([2]; time 260 min): 98.1% and 106.4% and 95.5%
BP % change vs. baseline ([2]; time 270 min): 90.6% and 103.4% and 93.8%
PAP % change vs. baseline ([2]; time 270 min): 98.6% and 107.5% and 95.9%
BP % change vs. baseline ([2]; time 280 min): 89.6% and 100.0% and 93.8%
PAP % change vs. baseline ([2]; time 280 min): 98.6% and 106.4% and 97.2%
BP % change vs. baseline ([2]; time 290 min): 88.7% and 102.3% and 92.9%
PAP % change vs. baseline ([2]; time 290 min): 99.6% and 105.8% and 98.4%
BP % change vs. baseline ([2]; time 300 min): 89.6% and 100.0% and 92.0%
PAP % change vs. baseline ([2]; time 300 min): 100.1% and 107.0% and 98.6%
BP % change vs. baseline ([2]; time 310 min): 89.6% and 100.0% and 91.1%
PAP % change vs. baseline ([2]; time 310 min): 101.7% and 107.5% and 99.6%
BP % change vs. baseline ([2]; time 320 min): 89.6% and 105.7% and 91.1%
PAP % change vs. baseline ([2]; time 320 min): 102.8% and 109.5% and 100.1%
BP % change vs. baseline ([2]; time 330 min): 89.6% and 98.9% and 89.3%
PAP % change vs. baseline ([2]; time 330 min): 102.9% and 106.1% and 99.3%
duration of action ([2]; nominal dose of 100 μg/kg): only a moderate duration of action
lung selectivity ([2]; nominal dose of 100 μg/kg): good lung selectivity

O.O=C(O)c1ccc(CCN(CCc2ccccc2OCc2ccc(-c3ccc(C(F)(F)F)cc3)cc2Cl)[C@H]2CCCc3nc(C(=O)O)ccc32)cc1 [7d]
Result (form after storage) [3]: monohydrate I

O=C(O)CCCCN(CCc1ccccc1OCc1ccc(CCc2ccccc2)cc1)Cc1ccc(C(=O)O)cc1 [comparative example 1, Cinaciguat]
Relaxation (%) (timepoint at 70 min) Mean ([4]; 1 nmol/l): 60.4%
Relaxation (%) (timepoint at 130 min) Mean ([4]; 1 nmol/l): 66.2%

COC(=O)N(C)c1c(N)nc(-c2nn(Cc3ccccc3F)c3ncccc23)nc1N [comparative example 2, Riociguat]
Relaxation (%) (timepoint at 70 min) Mean ([4]; 1 μmol/l): 29.1%
Relaxation (%) (timepoint at 130 min) Mean ([4]; 1 μmol/l): 85.1%

Ethyl 5-{[2-(2-{[3-chloro-4′-(trifluoromethyl)biphenyl-4-yl]methoxy}phenyl)ethyl]amino}-5,6,7,8-tetrahydroquinoline-2-carboxylate dihydrochloride [7a]
Result (form after storage) [3]: monohydrate II

Reference: patent US12138256B2, “Treatment of cardiopulmonary disorders” (Bayer Aktiengesellschaft, priority 2021, dated 2024)
